# According to ChEMBL document CHEMBL1201862, “PubChem BioAssay data set” (2004):
# Active and inactive are the calls of the source.
# What was measured:
# [1] = non-specific 3'UTR reporter inhibition in Clone20-Shn3RL – cell-based, Renilla luciferase, cherry-picked, counter-screen for Shn3 inhibitor project, dose response (AID 624133); type: functional
# [2] = A549 cell cytotoxicity, dose response, cytotoxicity control, plate reader, cherry-pick, antagonist series (AID 743412); type: functional, cell-based
# [3] = blockers of bursicon-stimulated LGR2 cAMP reporter – cell-based, HEK293, CRE-luciferase reporter, cherry pick, set 2, dose response (AID 743343); type: functional;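 also: transfected cells were stimulated with diluted bursicon conditioned medium after compound addition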
# [4] = molecular target: T1, Heat shock factor protein 1 (Mus musculus, UniProt P38532); assay: decrease of HSF1-responsive luciferase luminescence – cell-based, NIH3T3, dose retest, confirmation (AID 2382); type: functional;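 also: NIH3T3 fibroblasts with HSF1-driven luciferase reporter stressed by proteasome inhibitor MG132; luminescence from HSF1-driven luciferase expression after 8 hours of MG132 stress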
# T1 sequence (P38532 whole entry): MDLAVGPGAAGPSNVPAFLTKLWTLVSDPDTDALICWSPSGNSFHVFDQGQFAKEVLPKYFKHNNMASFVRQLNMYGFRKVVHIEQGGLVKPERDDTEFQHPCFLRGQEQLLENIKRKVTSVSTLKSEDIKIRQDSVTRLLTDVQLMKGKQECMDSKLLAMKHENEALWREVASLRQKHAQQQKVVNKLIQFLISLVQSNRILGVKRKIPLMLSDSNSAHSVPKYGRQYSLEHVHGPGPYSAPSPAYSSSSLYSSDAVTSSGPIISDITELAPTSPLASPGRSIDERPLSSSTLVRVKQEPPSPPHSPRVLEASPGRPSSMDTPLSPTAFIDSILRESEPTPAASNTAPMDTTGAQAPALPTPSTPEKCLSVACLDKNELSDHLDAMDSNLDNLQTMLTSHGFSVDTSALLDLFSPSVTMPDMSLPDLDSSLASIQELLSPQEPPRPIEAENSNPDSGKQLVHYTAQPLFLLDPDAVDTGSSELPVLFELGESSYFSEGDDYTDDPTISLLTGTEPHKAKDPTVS
# [5] = blockade of melanocortin 4 receptor signaling – cell-based, plate reader, cherry pick, counter-screen for LGR2 antagonist project, dose response (AID 743444); type: functional;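 also: transfected HEK 293 cells stimulated with alpha-MSH peptide; potency of inhibitors of the alpha-MSH evoked signal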
# [6] = reduction of Shn3 3'UTR-driven luciferase in osteoblasts – cell-based, Clone20 osteoblasts, firefly luciferase, cherry-picked, dose response (AID 624132); type: functional;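 also: firefly luciferase luminescence from reporter carrying the Shn3 3'UTR in osteoblasts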
# Protein RecA = molecular target: T2, Protein RecA (Mycobacterium tuberculosis, UniProt P9WHJ3); assay: Fluorescence Cell-Free Homogeneous Dose Retest to Identify Inhibitors of RecA-Intein Splicing Activity. [Related pubchem assays (depositor defined):AID2097, AID2223, AID489010, AID492950]; type: functional
# T2 sequence (P9WHJ3 whole entry): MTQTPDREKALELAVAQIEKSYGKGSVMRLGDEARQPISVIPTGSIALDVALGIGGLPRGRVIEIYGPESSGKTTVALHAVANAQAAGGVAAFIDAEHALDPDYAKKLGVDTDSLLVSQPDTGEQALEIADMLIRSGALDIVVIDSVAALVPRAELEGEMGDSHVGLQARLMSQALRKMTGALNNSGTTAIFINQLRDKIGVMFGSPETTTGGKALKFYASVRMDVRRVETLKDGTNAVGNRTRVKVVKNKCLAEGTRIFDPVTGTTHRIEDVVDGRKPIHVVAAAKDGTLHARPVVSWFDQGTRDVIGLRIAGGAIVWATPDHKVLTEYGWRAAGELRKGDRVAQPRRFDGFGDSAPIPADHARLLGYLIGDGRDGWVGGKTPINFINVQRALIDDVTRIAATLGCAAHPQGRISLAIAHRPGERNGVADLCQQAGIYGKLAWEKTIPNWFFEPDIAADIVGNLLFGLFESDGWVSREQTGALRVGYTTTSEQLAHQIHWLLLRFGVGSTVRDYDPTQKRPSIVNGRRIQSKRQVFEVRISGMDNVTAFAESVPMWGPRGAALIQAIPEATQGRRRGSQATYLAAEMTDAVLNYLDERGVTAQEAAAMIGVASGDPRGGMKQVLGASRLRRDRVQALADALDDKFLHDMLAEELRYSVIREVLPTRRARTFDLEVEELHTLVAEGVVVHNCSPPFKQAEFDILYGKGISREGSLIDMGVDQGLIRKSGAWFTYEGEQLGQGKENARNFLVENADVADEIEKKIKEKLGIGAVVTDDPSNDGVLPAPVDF
# [7] = molecular target: T3, Histone-lysine N-methyltransferase NSD2 (Homo sapiens, UniProt O96028); type: biochemical
# T3 sequence (O96028 whole entry): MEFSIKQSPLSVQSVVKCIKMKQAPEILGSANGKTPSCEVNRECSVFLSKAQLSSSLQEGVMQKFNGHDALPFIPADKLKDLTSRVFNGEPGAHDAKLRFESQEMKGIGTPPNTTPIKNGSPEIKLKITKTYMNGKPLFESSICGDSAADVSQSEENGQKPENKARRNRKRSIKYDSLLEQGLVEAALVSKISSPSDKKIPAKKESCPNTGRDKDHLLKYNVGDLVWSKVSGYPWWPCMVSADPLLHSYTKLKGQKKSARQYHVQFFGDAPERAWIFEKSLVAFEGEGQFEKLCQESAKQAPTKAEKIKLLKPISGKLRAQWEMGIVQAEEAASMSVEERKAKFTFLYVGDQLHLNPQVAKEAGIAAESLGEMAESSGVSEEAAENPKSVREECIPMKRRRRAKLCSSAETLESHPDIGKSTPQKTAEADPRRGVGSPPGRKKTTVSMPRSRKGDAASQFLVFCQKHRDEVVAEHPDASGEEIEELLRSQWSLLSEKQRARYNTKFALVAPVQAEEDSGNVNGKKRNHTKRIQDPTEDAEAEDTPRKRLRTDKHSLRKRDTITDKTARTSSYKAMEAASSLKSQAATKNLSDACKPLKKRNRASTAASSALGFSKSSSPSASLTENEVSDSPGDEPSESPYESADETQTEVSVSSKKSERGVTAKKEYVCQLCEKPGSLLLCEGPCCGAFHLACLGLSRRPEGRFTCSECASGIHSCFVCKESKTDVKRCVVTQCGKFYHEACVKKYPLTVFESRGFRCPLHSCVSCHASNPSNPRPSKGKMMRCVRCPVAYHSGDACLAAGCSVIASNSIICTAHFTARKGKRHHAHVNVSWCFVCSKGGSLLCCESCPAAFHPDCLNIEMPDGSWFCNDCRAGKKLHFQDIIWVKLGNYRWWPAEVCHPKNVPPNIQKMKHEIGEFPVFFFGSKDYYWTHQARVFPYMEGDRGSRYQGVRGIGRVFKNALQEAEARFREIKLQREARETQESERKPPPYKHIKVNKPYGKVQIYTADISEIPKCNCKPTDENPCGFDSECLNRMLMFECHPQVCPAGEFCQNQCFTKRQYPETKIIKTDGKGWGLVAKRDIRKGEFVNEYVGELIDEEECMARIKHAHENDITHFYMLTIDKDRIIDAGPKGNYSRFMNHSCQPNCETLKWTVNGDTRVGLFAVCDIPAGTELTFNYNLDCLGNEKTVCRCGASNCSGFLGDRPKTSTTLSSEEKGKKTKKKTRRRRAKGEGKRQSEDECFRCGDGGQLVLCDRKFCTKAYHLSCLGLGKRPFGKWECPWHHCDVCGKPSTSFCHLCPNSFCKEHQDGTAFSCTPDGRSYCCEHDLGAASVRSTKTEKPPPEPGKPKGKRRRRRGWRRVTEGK
# Estrogen receptor beta [8] = molecular target: T4, Estrogen receptor beta (Homo sapiens, UniProt Q92731); assay: blockers of SRC-3 recruitment to ERβ – biochemical, ELISA, streptavidin-HRP readout, orthogonal assay, confirmation (AID 1060)
# T4 sequence (Q92731 whole entry): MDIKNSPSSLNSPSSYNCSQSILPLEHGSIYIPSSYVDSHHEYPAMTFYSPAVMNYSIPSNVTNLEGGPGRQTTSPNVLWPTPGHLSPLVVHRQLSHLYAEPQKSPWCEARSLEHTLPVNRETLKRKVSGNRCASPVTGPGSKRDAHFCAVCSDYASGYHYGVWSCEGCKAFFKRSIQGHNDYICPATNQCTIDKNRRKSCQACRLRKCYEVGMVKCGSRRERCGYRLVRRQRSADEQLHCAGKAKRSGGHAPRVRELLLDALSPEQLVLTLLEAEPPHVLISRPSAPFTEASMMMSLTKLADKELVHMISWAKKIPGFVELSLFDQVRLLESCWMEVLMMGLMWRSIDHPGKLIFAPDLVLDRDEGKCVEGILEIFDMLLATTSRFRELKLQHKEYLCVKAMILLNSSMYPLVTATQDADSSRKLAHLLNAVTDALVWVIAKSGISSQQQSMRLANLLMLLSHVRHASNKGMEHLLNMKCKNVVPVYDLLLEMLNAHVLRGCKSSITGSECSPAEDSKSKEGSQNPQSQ
# Estrogen receptor beta [9] = molecular target: T4, Estrogen receptor beta
# [10] = molecular target: T5, Oxysterols receptor LXR-beta (Homo sapiens, UniProt P55055); type: functional, cell-based;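 also: agonist activity at LXR measured by a cell-based luminescence readout across a dose range, run as a counterscreen for daf-12 agonists; HEK293 cells with Gal4-LXR fusion and GAL4-driven luciferase reporter; potency for activation of Gal4-LXR reporter so compounds are agonists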
# T5 sequence (P55055 whole entry): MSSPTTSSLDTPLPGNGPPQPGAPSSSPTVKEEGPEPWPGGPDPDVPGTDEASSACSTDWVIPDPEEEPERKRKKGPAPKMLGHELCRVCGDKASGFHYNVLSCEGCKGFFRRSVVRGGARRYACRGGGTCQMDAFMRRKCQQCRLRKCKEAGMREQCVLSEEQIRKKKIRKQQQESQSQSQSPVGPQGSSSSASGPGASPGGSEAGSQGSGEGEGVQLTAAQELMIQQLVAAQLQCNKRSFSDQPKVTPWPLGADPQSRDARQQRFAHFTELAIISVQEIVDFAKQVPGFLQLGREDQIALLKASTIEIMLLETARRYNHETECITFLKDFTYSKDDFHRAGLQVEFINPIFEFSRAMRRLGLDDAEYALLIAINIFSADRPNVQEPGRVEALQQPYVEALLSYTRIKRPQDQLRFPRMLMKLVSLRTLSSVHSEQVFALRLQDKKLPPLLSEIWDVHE
# Protein skinhead-1 = molecular target: T6, Protein skinhead-1 (Caenorhabditis elegans, UniProt P34707); type: functional
# T6 sequence (P34707 whole entry): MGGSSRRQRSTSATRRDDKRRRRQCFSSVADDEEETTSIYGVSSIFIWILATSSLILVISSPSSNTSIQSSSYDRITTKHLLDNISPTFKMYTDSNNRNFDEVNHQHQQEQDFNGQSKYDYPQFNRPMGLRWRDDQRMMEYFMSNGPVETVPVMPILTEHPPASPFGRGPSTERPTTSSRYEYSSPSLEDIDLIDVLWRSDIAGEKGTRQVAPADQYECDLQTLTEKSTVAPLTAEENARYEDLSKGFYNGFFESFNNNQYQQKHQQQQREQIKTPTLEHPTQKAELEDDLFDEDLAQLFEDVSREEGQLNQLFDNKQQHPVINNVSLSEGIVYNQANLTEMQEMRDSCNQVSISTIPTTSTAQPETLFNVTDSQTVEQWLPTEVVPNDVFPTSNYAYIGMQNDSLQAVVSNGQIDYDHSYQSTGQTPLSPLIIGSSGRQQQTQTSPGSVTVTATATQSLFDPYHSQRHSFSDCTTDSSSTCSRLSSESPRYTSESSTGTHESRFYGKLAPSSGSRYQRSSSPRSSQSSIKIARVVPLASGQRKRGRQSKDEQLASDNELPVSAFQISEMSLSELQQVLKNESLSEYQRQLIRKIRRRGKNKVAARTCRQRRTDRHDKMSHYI
# [11] = reduced cellular PGC1a acetyl-lysine signal – cell-based, cherry-picked samples, dose response (AID 720514); type: functional;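 also: potency may reflect raised or lowered acetylation signal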
# [12] = IGROV1 cell killing – plate reader, dry powder samples, PAX8 inhibitor project, dose response (AID 743043); type: functional, cell-based; conditions: IGROV-1
# Paired box protein Pax-8 = Paired box protein Pax-8 (Homo sapiens, UniProt Q06710); assay: PAX8 transcriptional activity inhibition in RMG-I – RMG-I cells, luciferase, cherry-pick, dose response (AID 687027); type: functional, cell-based;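 also: luciferase reporter driven by Pax8 target thyroperoxidase promoter measured by SteadyGlo luminescence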
# Paired box protein Pax-8, sequence (Q06710 whole entry): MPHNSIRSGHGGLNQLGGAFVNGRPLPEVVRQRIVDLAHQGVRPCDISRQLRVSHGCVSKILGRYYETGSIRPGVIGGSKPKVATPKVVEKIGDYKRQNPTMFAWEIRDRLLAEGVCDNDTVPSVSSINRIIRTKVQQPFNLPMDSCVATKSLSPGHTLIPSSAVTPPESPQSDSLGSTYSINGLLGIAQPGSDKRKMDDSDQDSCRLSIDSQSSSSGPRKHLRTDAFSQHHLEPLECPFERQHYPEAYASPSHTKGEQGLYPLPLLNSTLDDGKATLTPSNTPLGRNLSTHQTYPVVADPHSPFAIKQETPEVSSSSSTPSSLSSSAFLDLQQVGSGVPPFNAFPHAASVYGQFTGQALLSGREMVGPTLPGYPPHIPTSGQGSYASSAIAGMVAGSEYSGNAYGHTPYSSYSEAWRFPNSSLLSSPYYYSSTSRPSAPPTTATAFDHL
# [13] = OVCAR-3 cell viability loss – plate reader, dry powder samples, PAX8 inhibitor project, dose response (AID 743044); type: functional, cell-based
# [14] = OVCAR8 cell viability loss – plate reader, dry powder samples, PAX8 project, dose response (AID 743197); type: functional, cell-based; conditions: OVCAR-8
# [15] = P. falciparum Dd2 growth inhibitors, dose response, SYBR Green, cherry-picked samples (AID 1159567); type: functional, cell-based
# [16] = toxicity to human hepatoma HepG2 cells – cell-based, cherry-picked samples, cytotoxicity control, dose response (AID 1159577); type: functional
compound,measurement,setting,value
O=C(O)c1cccc(COc2ccc(CO)cc2Cl)c1,AC50,[1],35 µM (active)
same,AC50,[2],> 52 µM (inactive)
same,AC50,[3],0.296 µM (active)
same,EC50,[4],0.375 µM (active)
same,AC50,[5],0.274 µM (active)
same,AC50,[6],1.04 µM (active)
CCCCNC(=O)c1c(N)n(Cc2ccc3c(c2)OCO3)c2nc3ccccc3nc12,EC50,Protein RecA,56.3 µM (active)
same,AC50,[7],19.4 µM (active)
CCCOC(=O)c1cc(-c2ccc(/C=C3/C(=O)N(C)C(=O)C(C#N)=C3C)o2)ccc1Cl,IC50,Estrogen receptor beta [8],10.3 µM (not active)
same,IC50,Estrogen receptor beta [9],> 50 µM (not active)
N=C1/C(=C/c2ccc(OCc3ccccc3F)cc2)C(=O)N=C2SC(CC(=O)N3CCOCC3)=NN12,EC50,[10],> 67.5 µM (inactive)
Brc1ccc(-c2noc(-c3ccccc3)n2)o1,EC50,[10],> 67.6 µM (inactive)
same,IC50,Protein skinhead-1,> 100 µM (inactive)
Cc1cc(C(=O)CSc2cccc[n+]2[O-])c(C)n1-c1ccccc1,EC50,[10],> 67.5 µM (inactive)
Cc1cc(O)nc(SCC(=O)c2ccc(F)c(C)c2)n1,AC50,[11],26.9 µM (active)
O=c1c2ccccc2nnn1CCc1ccccc1,EC50,[10],> 67.4 µM (inactive)
Cc1ccc(S(=O)(=O)Nc2ccc3c(c2)C(=O)N([C@@H](C)CO)C[C@H](C)[C@@H](CN(C)Cc2ccc(C(F)(F)F)cc2)OCCCC[C@@H](C)O3)cc1,AC50,[12],33.1 µM (active)
same,AC50,Paired box protein Pax-8,5.99 µM (active)
same,AC50,[13],11.4 µM (active)
same,AC50,[14],30.4 µM (active)
C[C@H]1CCCCO[C@@H](CN(C)Cc2ccc(C(F)(F)F)cc2)[C@@H](C)CN([C@@H](C)CO)C(=O)c2cc(NS(=O)(=O)c3ccccc3)ccc2O1,AC50,[12],47.8 µM (active)
same,AC50,Paired box protein Pax-8,7.08 µM (active)
same,AC50,[13],58.1 µM (active)
same,AC50,[14],> 70 µM (inactive)
C[C@H]1CCCCO[C@@H](CN(C)Cc2ccc(C(F)(F)F)cc2)[C@@H](C)CN([C@@H](C)CO)C(=O)c2cc(NC(=O)c3ccccc3)ccc2O1,AC50,[12],29.4 µM (active)
same,AC50,Paired box protein Pax-8,7.47 µM (active)
same,AC50,[13],6.48 µM (active)
same,AC50,[14],> 70 µM (inactive)
COc1cccc(-c2ccc([C@@H]3[C@H]4CNC[C@@H]3N4Cc3ccc4c(c3)OCO4)cc2)c1,AC50,[11],34.3 µM (active)
O=C(Nc1cc(F)ccc1F)N1CC(=O)N2[C@H](CO)[C@@H](c3ccc(C#CC4CCCCC4)cc3)[C@@H]2C1,AC50,[15],13.3 µM (active)
same,AC50,[16],40.3 µM (active)
Cc1ccccc1S(=O)(=O)N1CCCCN2[C@H](CO)[C@H](c3ccc(-c4ccccc4)cc3)[C@H]2C1,AC50,[15],1.05 µM (active)
same,AC50,[16],8.53 µM (active)
